Data: patent US20250195530A1, “POLQ INHIBITORS” (ASTRAZENECA AB, priority 2022, published 2025)
Where two headings read alike, the source gives them in different places.

How the values were obtained:
DLD-1 BRCA2−/− cells = assay: Homologous recombination synthetic lethal inhibition of proliferation, DLD-1 BRCA2-/- (Cell Titre Glo 3D); format: cell-based; conditions: Homo sapiens, DLD-1 BRCA2-/-, read-out: POLQ PD Prolif Lumin (converted)
Summary of the method: (§1)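 DLD-1 BRCA2−/− and parental DLD-1 cells exposed to 10-point dose range (10 μM to 0.51 nM, 3-fold) in RPMI/10% FBS at 37 °C, with medium and compound replenished on day 6. Viability by Cell Titre Glo 3D luminescence at day 7 (DLD-1) or day 12 (BRCA2−/−); IC50 as concentration halving maximum signal.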

DLD-1 cells = assay: Inhibition of proliferation, DLD-1 BRCA2 wt control (Cell Titre Glo 3D); format: cell-based; conditions: Homo sapiens, DLD-1 BRCA2 wt control, read-out: POLQ PD Prolif Lumin (converted)
Summary of the method: as §1

[1] = DLD-1, first proliferation column (c5)
[2] = DLD-1, second proliferation column (c6)
[3] = DLD-1, first proliferation column
[4] = DLD-1, second proliferation column

| Structure (SMILES) | IC50 (DLD-1 BRCA2−/− cells; [1]) | IC50 (DLD-1 cells; [2]) | IC50 (DLD-1 BRCA2−/− cells; [3]) | IC50 (DLD-1 cells; [4]) |
| --- | --- | --- | --- | --- |
| Cc1cc(Cl)cc(Cn2c(-c3ccc(OCCN4CCNCC4)cc3Cl)nc3c(OC4(C)CC4)ncnc32)n1 [Example T527, 8-(2-chloro-4-(2-(piperazin-1-yl)ethoxy)phenyl)-9-((4-chloro-6-methylpyridin-2-yl)methyl)-6-(1-methylcyclopropoxy)-9H-purine] | 398 nM | > 6310 nM |  |  |
| Cc1ccnc(Cn2c(-c3ccc(CCN4CCNCC4)cc3Cl)nc3c(OC4(C)CC4)ncnc32)c1 [Example T528, 8-(2-chloro-4-(2-(piperazin-1-yl)ethyl)phenyl)-6-(1-methylcyclopropoxy)-9-((4-methylpyridin-2-yl)methyl)-9H-purine] | 398 nM | 7940 nM |  |  |
| Cc1cc(OCCN2CCNCC2)ccc1-c1nc2c(OC3(C)CC3)ncnc2n1Cc1cc(Cl)ccn1 [Example T529, 9-((4-chloropyridin-2-yl)methyl)-8-(2-methyl-4-(2-(piperazin-1-yl)ethoxy)phenyl)-6-(1-methylcyclopropoxy)-9H-purine] | 631 nM | > 10000 nM |  |  |
| Cc1cncc(Cn2c(-c3ccc(OCCN4CCNCC4)cc3Cl)nc3c(OC4(C)CC4)ncnc32)c1 [Example T530, 8-(2-chloro-4-(2-(piperazin-1-yl)ethoxy)phenyl)-6-(1-methylcyclopropoxy)-9-((5-methylpyridin-3-yl)methyl)-9H-purine] | 1000 nM | > 10000 nM |  |  |
| Cc1cc(Cn2c(-c3ccc(OCCN4CCNCC4)cc3Cl)nc3c(OC4(C)CC4)ncnc32)ccn1 [Example T531, 8-(2-chloro-4-(2-(piperazin-1-yl)ethoxy)phenyl)-6-(1-methylcyclopropoxy)-9-((2-methylpyridin-4-yl)methyl)-9H-purine] | 6310 nM | > 10000 nM |  |  |
| COc1ccc(Cn2c(-c3ccc(OCCN4CCNCC4)cc3Cl)nc3c(OC4(C)CC4)ncnc32)nc1 [Example T532, 8-(2-chloro-4-(2-(piperazin-1-yl)ethoxy)phenyl)-9-((5-methoxypyridin-2-yl)methyl)-6-(1-methylcyclopropoxy)-9H-purine] | 6310 nM | > 10000 nM |  |  |
| Cc1ccnc(Cn2c(-c3ccc(CC(=O)N4C[C@H]5C[C@@H](C4)O5)cc3Cl)nc3c(OC4(C)CC4)ncnc32)c1 [Example T547, rel-1-((1R,5S)-6-oxa-3-azabicyclo[3.1.1]heptan-3-yl)-2-(3-chloro-4-(6-(1-methylcyclopropoxy)-9-((4-methylpyridin-2-yl)methyl)-9H-purin-8-yl)phenyl)ethan-1-one] | 501 nM | > 10000 nM |  |  |
| CC1(Oc2ncnc3c2nc(-c2ccc(OCCN4CCC[C@H]4C(=O)O)cc2Cl)n3Cc2cccc(Cl)c2)CC1 [Example T551, (2-(3-chloro-4-(9-(3-chlorobenzyl)-6-(1-methylcyclopropoxy)-9H-purin-8-yl)phenoxy)ethyl)-L-proline] | 316 nM | > 10000 nM |  |  |
| CC1(Oc2ncnc3c2nc(-c2ccc(OCCCN4CC[C@@H](O)C4)cc2Cl)n3Cc2cc(C(F)(F)F)ccn2)CC1 [Example T554, (R)-1-(3-(3-chloro-4-(6-(1-methylcyclopropoxy)-9-((4-(trifluoromethyl)pyridin-2-yl)methyl)-9H-purin-8-yl)phenoxy)propyl)pyrrolidin-3-ol] | 316 nM | > 10000 nM |  |  |
| Cc1ccnc(Cn2c(-c3ccc(CC(=O)N4CC5CC(C4)N5)cc3Cl)nc3c(OC4(C)CC4)ncnc32)c1 [Example T555, 1-(3,6-diazabicyclo[3.1.1]heptan-3-yl)-2-(3-chloro-4-(6-(1-methylcyclopropoxy)-9-((4-methylpyridin-2-yl)methyl)-9H-purin-8-yl)phenyl)ethan-1-one] | > 7940 nM | > 10000 nM |  |  |
| Cc1ccnc(Cn2c(-c3ccc(CC(=O)N4C[C@@H]5C[C@H]4CN5)cc3Cl)nc3c(OC4(C)CC4)ncnc32)c1 [Example T559, 1-((1S,4S)-2,5-diazabicyclo[2.2.1]heptan-2-yl)-2-(3-chloro-4-(6-(1-methylcyclopropoxy)-9-((4-methylpyridin-2-yl)methyl)-9H-purin-8-yl)phenyl)ethan-1-one] | > 6310 nM | > 10000 nM |  |  |
| CC1(Oc2ncnc3c2nc(-c2ccc(OCCCCCCC(=O)O)cc2Cl)n3Cc2cccc(Cl)c2)CC1 [Example T561, 7-(3-chloro-4-(9-(3-chlorobenzyl)-6-(1-methylcyclopropoxy)-9H-purin-8-yl)phenoxy)heptanoic acid] | 39.8 nM | > 10000 nM |  |  |
| CC1(Oc2ncnc3c2nc(-c2ccc(OCCCC(C)(C)C(=O)O)cc2Cl)n3Cc2cccc(Cl)c2)CC1 [Example T563, 5-(3-chloro-4-(9-(3-chlorobenzyl)-6-(1-methylcyclopropoxy)-9H-purin-8-yl)phenoxy)-2,2-dimethylpentanoic acid] | 200 nM | 10000 nM |  |  |
| CC1(Oc2ncnc3c2nc(-c2ccc(OCCCN4CC[C@@H](O)C4)cc2Cl)n3Cc2cc(C(F)F)ccn2)CC1 [Example T568, (R)-1-(3-(3-chloro-4-(9-((4-(difluoromethyl)pyridin-2-yl)methyl)-6-(1-methylcyclopropoxy)-9H-purin-8-yl)phenoxy)propyl)pyrrolidin-3-ol] | 794 nM | > 10000 nM |  |  |
| Cc1ccnc(Cn2c(-c3ccc(CC(=O)N4CCC(O)CC4)cc3Cl)nc3c(OC4(C)CC4)ncnc32)c1 [Example T574, 2-(3-chloro-4-(6-(1-methylcyclopropoxy)-9-((4-methylpyridin-2-yl)methyl)-9H-purin-8-yl)phenyl)-1-(4-hydroxypiperidin-1-yl)ethan-1-one] |  |  | 1000 nM | > 10000 nM |
| Cc1ccnc(Cn2c(-c3ccc(OCCN4CC5(CCN5)C4)cc3Cl)nc3c(OC4(C)CC4)ncnc32)c1 [Example T587, 8-(4-(2-(1,6-diazaspiro[3.3]heptan-6-yl)ethoxy)-2-chlorophenyl)-6-(1-methylcyclopropoxy)-9-((4-methylpyridin-2-yl)methyl)-9H-purine] |  |  | 1000 nM | > 10000 nM |
| Cc1ccnc(Cn2c(-c3ccc(C(=O)N4CC[C@H](N(C)C)C4)cc3Cl)nc3c(OC4(C)CC4)ncnc32)c1 [Example T588, (S)-(3-chloro-4-(6-(1-methylcyclopropoxy)-9-((4-methylpyridin-2-yl)methyl)-9H-purin-8-yl)phenyl)(3-(dimethylamino)pyrrolidin-1-yl)methanone] |  |  | 1260 nM | > 10000 nM |
| Cc1ccnc(Cn2c(-c3ccc(CC(=O)N4CCCNCC4)cc3Cl)nc3c(OC4(C)CC4)ncnc32)c1 [Example T589, 2-(3-chloro-4-(6-(1-methylcyclopropoxy)-9-((4-methylpyridin-2-yl)methyl)-9H-purin-8-yl)phenyl)-1-(1,4-diazepan-1-yl)ethan-1-one] |  |  | 1580 nM | > 10000 nM |
| Cc1ccnc(Cn2c(-c3ccc(OCCCN4CCCC4)cc3Cl)nc3c(OC4(C)CC4)ncnc32)c1 [Example T590, 8-(2-chloro-4-(3-(pyrrolidin-1-yl)propoxy)phenyl)-6-(1-methylcyclopropoxy)-9-((4-methylpyridin-2-yl)methyl)-9H-purine] |  |  | 251 nM | > 10000 nM |
| Cc1ccnc(Cn2c(-c3ccc(CCN4CCC(O)CC4)cc3Cl)nc3c(OC4(C)CC4)ncnc32)c1 [Example T591, 1-(3-chloro-4-(6-(1-methylcyclopropoxy)-9-((4-methylpyridin-2-yl)methyl)-9H-purin-8-yl)phenethyl)piperidin-4-ol] |  |  | 316 nM | > 10000 nM |
